The test system of one assay is K. pneumoniae. The experiment in a line: microbe, parasite or virus in culture. Format: cell-based, Klebsiella pneumoniae. Particulars: K. pneumonia (n = 4). As to the method: (§1) MIC of cationic polymers and polypeptide were tested in accordance with the Clinical and Laboratory Standards Institute (CLSI) guidelines against a panel of antibiotic-susceptible/-resistant bacteria, yeasts and fungal strains. Bacterial and yeast strains were cultured on tryptic soy agar (TSA) and Sabaroud dextrose agar (SDA) plates (Neogen Corporation, MI, USA) overnight respectively. Inocula in Mueller-Hinton broth (MHB) for bacteria and SD broth for C. albicans (Beckton Dickinson, MD, USA) were prepared at 0.5 McFarland. The suspensions were then diluted to a final concentration of 10^5 CFU/ml in a 96-well microtitre plate (SPL Life Sciences Co., Ltd, Korea). Polymers and polypeptides were added to the inoculum in 2-fold serial dilutions to give a range of concentrations from 2-1024 μg/ml. […] The antimicrobial activities were compared with topical antiseptic agents, BAK and CHX. A similar protocol was used to determine the MIC of εPL against antibiotic-resistant pathogens. MIC of the polymers and polypeptides against Fusarium strains was determined in full strength RPMI-1640 buffer. Fungal spores were recovered from a 5-day old culture on a potato dextrose agar and diluted to a concentration of 10^5 spores/ml in 0.9% saline solution. A further 50-fold dilution was done in RPMI-1640 buffer and 100 μl of the inoculum was added to 96 well plates containing an equal volume of test peptides at 2-fold serial dilutions. 200 μl of inoculum without any additives and buffer alone served as positive and negative controls, respectively. The plate was then incubated at 30° C. for 48 h. The absorbance value was measured at 600 nm as before and the lowest concentration of the peptide which inhibited 90% growth was reported. All MIC determinations were performed in duplicates.
(§2) MICs of polymers/antibiotics were determined using the microdilution method in 96 well microtitre plates (SPL Life Sciences Co., Ltd, Korea), following the guidelines of Clinical and Laboratory Standards Institute (CLSI) document M100-S18. Briefly, polymers (1-512 μg/ml) or antibiotics were dissolved in appropriate media (Mueller Hinton broth, MHB for bacteria; Sabaroud's Dextrose (SD) broth for yeasts and RPMI buffer for Fusarium strains) and 100 μl of this was then mixed with an equal volume of microbial inoculum (OD600=˜0.08) in the same media and shaken in a closed incubator.

In a further assay the test system is E. coli. The experiment in a line: microbe, parasite or virus in culture. Format: cell-based, Escherichia coli. As to conditions: E. coli (n = 3). As to the method:
as §1, §2

For the next assay, the system named is S. aureus. The experiment in a line: microbe, parasite or virus in culture. Particulars: S. aureus (n = 6). Format: cell-based, Staphylococcus aureus. The protocol: as §1, §2
In a further assay the test system is MRSA. In kind it is cell-based, Staphylococcus aureus. Particulars: MRSA (n = 9). As to the method: as §1, §2
Assay [1] has as its system Carbapenam-resistant Enterobacter strains (CRE). The experiment in a line: microbe, parasite or virus in culture. Particulars: CRE strains (n = 4). As to the method:
as §1, with “Korea).” for “Korea). Polymers and polypeptides were added to the inoculum in 2-fold serial dilutions to give a range of concentrations from 2-1024 μg/ml.”
as §2

The test system of the next assay is E. cloacae complex. The experiment in a line: microbe, parasite or virus in culture. Particulars: E. clocae complex (n = 4). As to the method: as §1, with “Korea).” for “Korea). Polymers and polypeptides were added to the inoculum in 2-fold serial dilutions to give a range of concentrations from 2-1024 μg/ml.”
as §2

For a further assay, the system named is A. baumannii. In words: microbe, parasite or virus in culture. Particulars: A. baumanii (n = 3). As to the method:
as §1, with “Korea).” for “Korea). Polymers and polypeptides were added to the inoculum in 2-fold serial dilutions to give a range of concentrations from 2-1024 μg/ml.”
as §2

In assay [2] the test system is Vancomycin-resistant Enterococcus (VRE). As to conditions: VRE (n = 3). As to the method:
as §1, with “Korea).” for “Korea). Polymers and polypeptides were added to the inoculum in 2-fold serial dilutions to give a range of concentrations from 2-1024 μg/ml.”
as §2

In another assay the test system is C. albicans. Particulars: C. albicans (n = 5). The protocol:
as §1, with “Korea).” for “Korea). Polymers and polypeptides were added to the inoculum in 2-fold serial dilutions to give a range of concentrations from 2-1024 μg/ml.”
as §2

Another assay concerns P. aeruginosa. Format: cell-based, Pseudomonas aeruginosa. Particulars: P. aeruginosa (n = 22). The protocol: as §1
(§3) MICs of polymers/antibiotics were determined using the microdilution method in 96 well microtitre plates (SPL Life Sciences Co., Ltd, Korea), following the guidelines of Clinical and Laboratory Standards Institute (CLSI) document M100-S18. […]

The test system of assay [3] is T-cell lymphomas (HuT78, MJ, HH) and B-cell lymphomas (Ly-4 and Ly-18). The experiment in a line: Anticancer properties of hypercharged peptides (MTS). In kind it is cell-based, human. Particulars: 62.5-500 μg/ml. The protocol:
The hyper-charged peptides were screened for their anticancer properties using cell lines derived from patients with various forms of cutaneous lymphomas, including T-cell lymphomas (HuT78, MJ, HH) and B-cell lymphomas (Ly-4 and Ly-18). The relative cytotoxicity of these peptides was also assessed in healthy primary peripheral blood lymphocyte (PBL) T-cells. Cytotoxicity was measured as the mitochondrial function by metabolic reduction of MTS.

Assay [4] deals with F. solani and F. oxysporum. The experiment in a line: Minimum inhibitory concentration (MIC) determination, Fusarium strains. In kind it is cell-based. As to conditions: F. solani and F. oxysporum (n = 6). The protocol: MIC of cationic polymers and polypeptide were tested in accordance with the Clinical and Laboratory Standards Institute (CLSI) guidelines against a panel of antibiotic-susceptible/-resistant bacteria, yeasts and fungal strains. Bacterial and yeast strains were cultured on tryptic soy agar (TSA) and Sabaroud dextrose agar (SDA) plates (Neogen Corporation, MI, USA) overnight respectively. Inocula in Mueller-Hinton broth (MHB) for bacteria and SD broth for C. albicans (Beckton Dickinson, MD, USA) were prepared at 0.5 McFarland. The suspensions were then diluted to a final concentration of 10^5 CFU/ml in a 96-well microtitre plate (SPL Life Sciences Co., Ltd, Korea). Polymers and polypeptides were added to the inoculum in 2-fold serial dilutions to give a range of concentrations from 2-1024 μg/ml. […] The antimicrobial activities were compared with topical antiseptic agents, BAK and CHX. […] MIC of the polymers and polypeptides against Fusarium strains was determined in full strength RPMI-1640 buffer. […] The absorbance value was measured at 600 nm as before and the lowest concentration of the peptide which inhibited 90% growth was reported. […]
as §3

A further assay has as its system P. aeruginosa ATCC 9027. The experiment in a line: Antimicrobial activity of the peptides in trypsin. Particulars: trypsin:peptide 1:100, 37° C. In kind it is cell-based, Pseudomonas aeruginosa. As to the method:
To determine the antimicrobial activity of the peptides in the presence of proteases, 1 mg/ml of HC1 and HC2 were incubated with trypsin enzyme:peptide weight ratio 1:100) for 1 h at 37° C. After this, a 20 μl aliquot of this solution was mixed 180 μl of bacterial inoculum (P. aeruginosa ATCC 9027, 10^5 CFU/ml in MHB) and incubated at room temperature for 6 h. 100 μL aliquots of the suspension was diluted serially (10-fold) in 10 mM PBS solution and pour plated on MH agar plates and incubated at 37° C. for 48 h and colony forming units per ml (CFU/ml) are enumerated.

Values after ≈ are worked out from the molar mass of the structure shown. No end group written: not given here.

As for `N=C(N)NCCC[C@@H](NC(=O)[C@@H](N)CCCCNC(=O)[C@@H](CCCNC(=N)N)NC(=O)[C@@H](N)CCCCNC(=O)[C@@H](CCCNC(=N)N)NC(=O)[C@@H](N)CCCCNC(=O)[C@@H](CCCNC(=N)N)NC(=O)[C@@H](N)CCCCNC(=O)[C@@H](CCCNC(=N)N)NC(=O)[C@@H](N)CCCCNC(=O)[C@@H](CCCNC(=N)N)NC(=O)[C@@H](N)CCCCN)C(=O)O` [HC4, KrKrKrKrKrKr], the MIC against K. pneumoniae was 16 to 128 µg/mL; against E. coli, 16 µg/mL (≈ 9.28 µM); in the assay on S. aureus, 32 µg/mL (≈ 18.6 µM); against MRSA, 16 to 64 µg/mL; in assay [1], 64 to 128 µg/mL; in the assay on E. cloacae complex, 64 to 128 µg/mL. Moreover, the MIC is 16 to 32 µg/mL against A. baumannii, 16 µg/mL (≈ 9.28 µM) in assay [2], 16 to 32 µg/mL with C. albicans and 16 to 64 µg/mL against P. aeruginosa. Also, in [3], the “cell killing in lymphoma cell lines” value is given as “varying degrees of cell killing”.
Consider `N=C(N)NCCC[C@H](NC(=O)[C@H](N)CCCCNC(=O)[C@H](CCCNC(=N)N)NC(=O)[C@H](N)CCCCNC(=O)[C@H](CCCNC(=N)N)NC(=O)[C@H](N)CCCCNC(=O)[C@H](CCCNC(=N)N)NC(=O)[C@H](N)CCCCNC(=O)[C@H](CCCNC(=N)N)NC(=O)[C@H](N)CCCCNC(=O)[C@H](CCCNC(=N)N)NC(=O)[C@H](N)CCCCN)C(=O)O` [HC6, kRkRkRkRkRkR], for which the MIC in the assay with K. pneumoniae was 32 to 128 µg/mL; against E. coli it was 16 µg/mL (≈ 9.28 µM); with S. aureus it was 32 to 64 µg/mL; in the assay on MRSA, 16 to 32 µg/mL; in [1], 64 to 128 µg/mL; in the assay on E. cloacae complex, 64 to 128 µg/mL. For the same compound, the MIC in the assay with A. baumannii was 16 to 64 µg/mL; in assay [2] it was 16 µg/mL (≈ 9.28 µM); with C. albicans, 16 to 32 µg/mL; in the assay on P. aeruginosa it was 32 to 64 µg/mL. In addition, the “cell killing in lymphoma cell lines” value in assay [3] is “varying degrees of cell killing”.
In assay [4], `C[C@@H]1C/C=C/C=C/C=C/C=C/[C@H](O[C@@H]2O[C@H](C)[C@@H](O)[C@H](N)[C@@H]2O)C[C@@H]2O[C@](O)(C[C@@H](O)C[C@H]3O[C@@H]3/C=C/C(=O)O1)C[C@H](O)[C@H]2C(=O)O` [Natamycin] came in with an MIC of 8000 to 16000 µg/mL (≈ 12000 to 24000 µM).
On to KRKRKRKRKRKR [HC1, KRKRKRKRKRKR], for which the MIC against K. pneumoniae is 64 µg/mL; in the assay with E. coli, 16 µg/mL; in the assay on S. aureus, 32 to 64 µg/mL; in the assay with MRSA, 16 to 64 µg/mL; in assay [1], 64 to 128 µg/mL; against E. cloacae complex, 64 to 128 µg/mL. Further, the MIC with A. baumannii was in the range of 64 to 128 µg/mL; in [2] it was 16 to 32 µg/mL; against C. albicans it was 64 to 128 µg/mL; against P. aeruginosa it was 32 to 128 µg/mL. Further, the “decrease in the bacterial viability after incubation with trypsin for 1 hour” value in the assay with P. aeruginosa ATCC 9027 is listed as “complete loss of activity”. Further, the “cell killing in lymphoma cell lines” value in assay [3] is “varying degrees of cell killing”.

The record behind these values is patent US11396531B2, “Antimicrobial peptides comprising epsilon lysine residues” (priority 2016, dated 2022).
